Measurements taken from patent US11725000B2, “Apoptosis inhibitors” (National Institute of Biological Sciences, Beijing, priority 2017, dated 2023).

These molecules were tested on U2OS_Bim cells (assay: Apoptosis inhibition assay (Bim-induced apoptosis, cell viability by ATP level)). Conditions: U2OS_Bim cells; estimated (*Est.) / preliminary results; numbering of Tables 4a/4b; read-out: EC50.
Assay type: cell-based
Description: A chemical library containing 200000 compounds was screened according to the following procedure: U2OS_Bim cells (a cell line in which the BH3-only protein Bim can be inducibly expressed by the addition of Doxycycline to the growth medium)^[2] were plated in 384-well plates with 30 μl medium at a density of 500 cells per well. 16 hrs after plating, test compounds were transferred from stock plates to the assay plates with the cultured cells. Positive control (20 μM zVAD) and negative control (DMSO) were added to every plate. 1 hr after compound treatment, 0.1 ug/mL Doxycyclin (DOX) was added to induce the expression of the Bim protein. After 24 hrs, cell viability was determined by measuring the ATP levels using a Cell Titer-Glo kit (Promega, G7570) according to the manufacturer's instructions. Luminescence was recorded with a PerkinElmer EnSpire Multimode Plate Reader. Compounds that could rescue cell viability to a level above 50% were selected; these compounds were then screened a second time for assurance.
U2OS_Bim or U2OS_tBid cells were plated at a density of 3000 cells per well in 96-well plates. 24 hrs later, cells were treated with experimental compounds, zVAD (positive control) and DMSO (Negative control) for one hour. The cells were then treated with 0.1 μg/mL DOX to trigger apoptosis. 24 hours after the addition of DOX, cell viability was determined by measuring the ATP levels using a Cell Titer-Glo kit. Cell survival rate was calculated.
U2OS_Bim cells (a U2OS stable cell line transfected with a Bim transgene) were cultured in DMEM culture medium (Gibico). On day one, U2OS_Bim cells were plated in 96-well plates at a density of 3000 cells per well. On day two, cells were pretreated with compounds for one hour. Then cells were treated with 0.1 μg/mL doxycycline (DOX) to trigger apoptosis. 24 hours after DOX treatment, cell viability was determined by measuring the ATP levels using the Cell Titer-Glo kit (G7570, Promega), according to the manufacturer's instructions. Luminescence was recorded with a PerkinElmer EnSpire Multimode Plate Reader. Survived cells were normalized to those cells treated with DMSO. zVAD (20 μM) was used as a positive control. Activity data for compounds […] are represented as means f standard deviation of duplicates; activity data for compounds 187-274 are estimated based on preliminary results.

SMILES | EC50
Cc1cc(-c2cc(F)c(=O)n(Cc3ccc4c(c3)OCO4)c2)nc(S(=O)(=O)CCC(OCc2ccccc2F)c2cncs2)n1 (stereo not shown) [Compound 390] | 1 to 1000 nM
Cc1cc(-c2ccc(=O)n(Cc3ccc4nnn(C)c4c3)n2)nc(S(=O)(=O)CCC(OCc2ccccc2F)c2ccccc2)n1 (stereo not shown) [Compound 369] | 1 to 1000 nM
Cc1cc(-c2cc(F)c(=O)n(Cc3ccc4[nH]c(=O)c(=O)[nH]c4c3)c2)nc(S(=O)(=O)CCC(OCc2ccccc2F)c2ccccc2)n1 (stereo not shown) [Compound 345] | 1 to 1000 nM
Cc1cc(-c2cc(F)c(=O)n(Cc3ccc4c(c3)NC(=O)CO4)c2)nc(S(=O)(=O)CCC(OCc2ccccc2F)c2ccccc2)n1 (stereo not shown) [Compound 344] | 1 to 1000 nM
Cc1cc(-c2cc(F)c(=O)n(Cc3ccc4c(c3)n(C)c(=O)n4C)c2)nc(S(=O)(=O)CCC(OCc2ccccc2F)c2ccccc2)n1 (stereo not shown) [Compound 342] | 1 to 1000 nM
Cc1cc(-c2cc(F)c(=O)n(Cc3ccc4c(c3)OCO4)c2)nc(S(=O)(=O)CCCN(c2ccccc2)C2CCC2)n1 [Compound 376] | 1 to 1000 nM

Same assay, conditions: U2OS_Bim cells; estimated based on preliminary results; numbering of Tables 4a/4b; read-out: EC50

SMILES | EC50
CCc1cc(Cn2cc(-c3cc(C(F)(F)F)nc(S(C)(=O)=O)n3)ccc2=O)ccc1OC [Compound 262] | < 10000 nM
C[S+]([O-])c1nc(-c2ccc(=O)n(Cc3ccc4c(c3)OCCO4)c2)cc(C(F)(F)F)n1 (stereo not shown) [Compound 231] | < 10000 nM
CNc1ccc(Cn2cc(-c3cc(C(F)(F)F)nc(S(C)(=O)=O)n3)ccc2=O)cc1NC [Compound 232] | < 10000 nM
C[S+]([O-])c1nc(-c2ccc(=O)n(Cc3ccc4cnccc4c3)c2)cc(C(F)(F)F)n1 (stereo not shown) [Compound 249] | < 10000 nM
COc1ccc(Cn2cc(-c3cc(C(F)(F)F)nc([S+]([O-])CN4CCCC4)n3)ccc2=O)cc1OC (stereo not shown) [Compound 198] | < 10000 nM
COc1ccc(Cn2cc(-c3cc(C(F)(F)F)nc([S+]([O-])Cc4ccccn4)n3)ccc2=O)cc1OC (stereo not shown) [Compound 187] | < 10000 nM

Same assay, conditions: U2OS_Bim cells; means of duplicates; numbering of Tables 4a/4b

SMILES | EC50
C#CCOc1cc(Cn2cc(-c3cc(C(F)(F)F)nc(S(C)(=O)=O)n3)ccc2=O)ccc1OC [Compound 129, 1-(4-methoxy-3-(prop-2-yn-1-yloxy)benzyl)-5-(2-(methylsulfonyl)-6-(trifluoromethyl)pyrimidin-4-yl)pyridin-2 (1H)-one] | 1 to 1000 nM
C#CCOc1ccc(Cn2cc(-c3cc(C(F)(F)F)nc(S(C)(=O)=O)n3)ccc2=O)cc1OC [Compound 130, 1-(3-methoxy-4-(prop-2-yn-1-yloxy)benzyl)-5-(2-(methylsulfonyl)-6-(trifluoromethyl)pyrimidin-4-yl)pyridin-2 (1H)-one] | 1 to 1000 nM

Same assay, conditions: U2OS_Bim cells; means of duplicates; numbering of Tables 4a/4b; read-out: EC50

EC50 | SMILES
1 to 1000 nM | COc1ccc(Cn2cc(-c3cc(C(F)F)nc(S(=O)(=O)CCC(Cl)c4ccccc4)n3)ccc2=O)cc1OC (stereo not shown) [Compound 279, 5-(2-((3-chloro-3-phenylpropyl)sulfonyl)-6-(difluoromethyl)pyrimidin-4-yl)-1-(3,4-dimethoxybenzyl)pyridin-2 (1H)-one]
1000 to 10000 nM | O=S(=O)(CCC(Cl)c1ccccc1)c1nc(-c2cccs2)cc(C(F)(F)F)n1 (stereo not shown) [Compound 292, 2-((3-chloro-3-phenylpropyl)sulfonyl)-4-(thiophen-2-yl)-6-(trifluoromethyl)pyrimidine]
< 100000 nM | Cc1cc(-c2cc(F)c(=O)n(CC3CCCCC3)c2)nc([S+]([O-])CCC(OCc2ccc(F)cc2F)c2ccccc2)n1 (stereo not shown) [Compound 308, 1-(cyclohexylmethyl)-5-(2-(3-(2,4-difluorobenzyloxy)-3-phenylpropylsulfinyl)-6-methylpyrimidin-4-yl)-3-fluoropyridin-2 (1H)-one]
1 to 1000 nM | COc1ccc(Cn2cc(-c3cc(C(F)F)nc(S(=O)(=O)CCC(OCc4ccccc4F)c4ccccc4)n3)ccc2=O)cc1F (stereo not shown) [Compound 284, 5-(6-(difluoromethyl)-2-(3-(2-fluorobenzyloxy)-3-phenylpropylsulfonyl)pyrimidin-4-yl)-1-(3-fluoro-4-methoxybenzyl)pyridin-2 (1H)-one]
1 to 1000 nM | Cc1cc(-c2cc(F)c(=O)n(Cc3ccc4scnc4c3)c2)nc(S(=O)(=O)CCC(OCc2ccccc2F)c2ccccc2)n1 (stereo not shown) [Compound 326, 1-(benzo[d]thiazol-5-ylmethyl)-3-fluoro-5-(2-(3-(2-fluorobenzyloxy)-3-phenylpropylsulfonyl)-6-methylpyrimidin-4-yl)pyridin-2 (1H)-one]
1 to 1000 nM | Cc1cc(-c2cc(F)c(=O)n(Cc3ccc4c(c3)OCO4)c2)nc(S(=O)(=O)CCC(Oc2cccnc2)c2ccccc2)n1 (stereo not shown) [Compound 333, 1-(benzo[d][1,3]dioxol-5-ylmethyl)-3-fluoro-5-(6-methyl-2-((3-phenyl-3-(pyridin-3-yloxy)propyl)sulfonyl)pyrimidin-4-yl)pyridin-2 (1H)-one]

The remaining lines, values behind:

SMILES | EC50
CS(=O)(=O)c1nc(-c2ccc(=O)n(Cc3ccc4c(c3Br)OCO4)c2)cc(C(F)(F)F)n1 [Compound 137, 1-((4-bromobenzo[d][1,3]dioxol-5-yl)methyl)-5-(2-(methylsulfonyl)-6-(trifluoromethyl)pyrimidin-4-yl)pyridin-2 (1H)-one] | 1 to 1000 nM
COc1ncccc1-c1cc(C(F)(F)F)nc(S(C)(=O)=O)n1 [Compound 78, 4-(2-methoxypyridin-3-yl)-2-(methylsulfonyl)-6-(trifluoromethyl)pyrimidine] | < 100000 nM
COc1ccc(Cn2cc(-c3cc(C(F)F)nc(S(=O)(=O)c4cccc(NC(C)=O)c4)n3)ccc2=O)cc1OC [Compound 182, N-(3-((4-(difluoromethyl)-6-(1-(3,4-dimethoxybenzyl)-6-oxo-1,6-dihydropyridin-3-yl)pyrimidin-2-yl)sulfonyl)phenyl)acetamide] | 1 to 1000 nM
CS(=O)(=O)c1nc(-c2cccc(C#N)c2)cc(C(F)(F)F)n1 [Compound 56, 3-(2-(methylsulfonyl)-6-(trifluoromethyl)pyrimidin-4-yl)benzonitrile] | 1000 to 20000 nM
C[S+]([O-])c1nc(-c2ccc(=O)n(Cc3ccc(Cl)cc3F)c2)cc(C(F)(F)F)n1 (stereo not shown) [Compound 125, 1-(4-chloro-2-fluorobenzyl)-5-(2-(methylsulfinyl)-6-(trifluoromethyl)pyrimidin-4-yl)pyridin-2 (1H)-one] | 1000 to 10000 nM
COc1ccc(Cn2cc(-c3cc(C)nc(S(=O)(=O)CC(F)(F)F)n3)ccc2=O)cc1OC [Compound 166, 1-(3,4-dimethoxybenzyl)-5-(6-methyl-2-((2,2,2-trifluoroethyl)sulfonyl)pyrimidin-4-yl)pyridin-2 (1H)-one] | 1000 to 10000 nM
CS(=O)(=O)c1nc(-c2cccs2)cc(-n2cccn2)n1 [Compound 36, 2-(methylsulfonyl)-4-(1H-pyrazol-1-yl)-6-(thiophen-2-yl)pyrimidine] | 1000 to 10000 nM
COc1cccc(-c2cc(C(F)(F)F)nc(S(C)(=O)=O)n2)c1 [Compound 52] | < 100000 nM
CS(=O)(=O)c1nc(-c2cccs2)cc(N2CCOCC2)n1 [Compound 40, 4-(2-(methylsulfonyl)-6-(thiophen-2-yl)pyrimidin-4-yl)morpholine] | < 100000 nM
COCCCS(=O)(=O)c1nc(-c2ccc(=O)n(Cc3ccc(OC)c(OC)c3)c2)cc(C(F)(F)F)n1 [Compound 144, 1-(3,4-dimethoxybenzyl)-5-(2-((3-methoxypropyl)sulfonyl)-6-(trifluoromethyl)pyrimidin-4-yl)pyridin-2 (1H)-one] | 1 to 1000 nM
COc1ccc(Cn2cc(-c3cc(C(F)(F)F)nc(S(C)(=O)=O)n3)ccc2=O)cc1 [Compound 110, 1-(4-Methoxybenzyl)-5-(2-(methylsulfonyl)-6-(trifluoromethyl)pyrimidin-4-yl)pyridin-2 (1H)-one] | 1 to 1000 nM
